The source of these data is patent US20160227783A1, “AGROCHEMICAL FORMULATION AID FOR MICRONUTRIENT UPTAKE IN PLANTS, PLANT HEALTH BENEFITS AND HERBICIDE PERFORMANCE” (Adjuvants Plus USA, INC., priority 2015, published 2016).

One assay has as its system Velvetleaf. As to the kind of experiment: Influence of water conditioners on the control of velvetleaf 21 DAT in the greenhouse. The conditions noted are these: velvetleaf 21 DAT greenhouse.
For assay [1], the system named is glyphosate resistant canola Nexera 1012. As to the kind of experiment: Canola leaf tissue mineral composition after glyphosate with or without Composition 2. The conditions noted are these: for % K / % N / % P / % S / Fe ppm / Mn ppm / Zn ppm: Control: glyphosate 0.45 kg/ha alone. It counts as in vivo. The protocol: (§1) A trial was conducted to evaluate the effect of early and or late application of glyphosate with Composition 2 on yield of glyphosate resistant canola. The RR canola was Nexera 1012. The trial was conducted on a silt loam soil with 40-47% sand, 30-50% silt and 10-23% clay, 1.4-2.9% organic matter, and pH of 6.4-8.2. The plot was planted to field pea and then hard red spring wheat the previous two years. Treatments were arranged in a randomized complete block design with four (4) replications each while the control (no-Composition 2) was replicated only twice. Plots were seeded with Nexera 1012 at seeding depth of about 1.2 to 2.5 cm, 10° C. soil temperature and plant population of approximately 110-115 seeds m2. Plants were fertilized with 87-31-9-22 N—P—K—S pounds per acre via spreading urea and potash and putting phosphorus (Alpine and 11-52-0) and sulfur through the drill. In-crop application of glyphosate at a rate of 0.45 kg ha-1 (180 g/ac) with Composition 2 at 1 L/ac was applied at 3-4 leaf stage (Early application), 6 leaf stage (Normal application), after 10 leaf stage (late) and at both 3-4 leaf and after 10 leaf stages (Early/late application). The control treatments were sprayed with glyphosate alone. Each treatment was replicated four (4) times except the control treatment which had only two (2) replications.
(§2) Plant leaf tissues were collected at one and two weeks after spraying within each treatment to determine the mineral compositions. At physiological maturity with 70% of the seeds on the main raceme turned black, plants were swathed and allowed to cure for three weeks before being combined. Prior to swathing, fifty randomly selected plants were used for seed yield and yield components analysis. Data on number of fruits/plant, percent seed oil and seed protein were collected and analysed. An area of […] of swath for each plot was combined and used for yield (bu/ac) determination. Seed yield (bu/ac) from combine was adjusted to 8% seed moisture content. Variables response to treatments were compared by analysis of variance (ANOVA) by using SPSS statistical software and mean values were subjected to ANOVA and significant means at F<0.05 were separated by the Duncan's multiple range test.

Assay [2] shares this test system. The experiment in a line: Canola field trial: flowering, yield components, oil, protein and seed yield. Type of assay: in vivo. As for the experimental part:
as §1, §2

[3] abbreviates: canola leaf tissue one week after application, Control: glyphosate alone.
[4] abbreviates: canola leaf tissue one week after spraying.
The mark [5] stands for this setting: canola leaf tissue two weeks after spraying.
The mark [6] stands for this setting: canola, Control: glyphosate 0.45 kg/ha alone.

Marks after values point to notes of the source that are not given here.

As for `O=C(O)COc1ccc(Cl)cc1Cl` [2,4-D Acid, 2,4-D], the “2,4-D Acid (% control)” value in the assay with Velvetleaf (2,4-D Acid (Rugged) 0.1 kg a.e/ha, herbicide alone) is recorded as 31 g %.
Regarding `CNC.O=C(O)COc1ccc(Cl)cc1Cl` [2,4-D DMA, 2,4-D Dimethylamine], in the assay on Velvetleaf (2,4-D DMA 0.1 kg a.e./ha, herbicide alone), the “2,4-D DMA (% control)” value was 29 g %.
As for `N.N.O=S(=O)(O)O` [AMS, Diammonium sulfate], in the assay with Velvetleaf (2,4-D Acid (Rugged) 0.1 kg a.e/ha +2% AMS), the “2,4-D Acid (% control)” value is 73 ab %. In the assay with Velvetleaf (2,4-D DMA 0.1 kg a.e./ha +2% AMS), the “2,4-D DMA (% control)” value is reported as 58 def %.
For `COc1c(Cl)ccc(Cl)c1C(=O)O.NCCOCCO` [Dicamba DGA, dicamba diglycolamine], in the assay with Velvetleaf (Dicamba DGA (Clarity) 0.034 kg a.e/ha, herbicide alone), the “Dicamba DGA (% control)” value was found to be 36 g %.
Consider `O=C(O)CNCP(=O)(O)O` [glyphosate], for which, in assay [1] (setting [3]), the Fe reduction is 22.7%, the “Mn concentration drop from the initial concentration” value turned out to be 13.4% and the “Zn concentration drop from the initial concentration” value was found to be 14.5%. In assay [1] (setting [4]), the “% K” value is 4.1^a %, the “% N” value is 3.7^a %, the “% P” value is given as 0.3^a % and the “% S” value is given as 1.0^a %. Further, in assay [1] (setting [4]), the Fe ppm was 85.1^a ppm, the Mn ppm is on record as 76.4^a ppm and the Zn ppm is 20.7^a ppm. Moreover, in assay [1] (setting [5]), the “% K” value is reported as 4.3^a %, the “% N” value is recorded as 4.6^a %, the “% P” value was 0.5^a % and the “% S” value is given as 1.3^a %. Further, in assay [1] (setting [5]), the Fe ppm is reported as 105^a ppm, the Mn ppm is recorded as 83.2^a ppm and the Zn ppm was 22.6^a ppm. Moreover, the oil content in assay [2] (canola seed, Control: glyphosate 0.45 kg/ha alone) came to 37.7%. In addition, in assay [2] (canola seed, Control: glyphosate alone), the percent protein entry is on record as “lowest value”. Besides, in assay [2] (setting [6]), the “Number of fruits per plant” value is reported as 78.5, the Seed yield is 40.9 bu/ac and the thousand seed weight was 3.1 g. Moreover, in assay [2] (control (no-Composition 2) compared to Early, Normal and Early/Late treatments), the Percent green counts entry is on record as “higher”. For the same compound, the Flowering result in assay [2] (no-Composition 2 (glyphosate alone) plots compared to Composition 2 treated plots) is recorded as “delayed”.
